Reference: patent US5399487A, “6-peptidylamino-1-naphthalenesulfonamides useful as fluorogenic proteolytic enzyme substrates” (Haematologic Technologies, Inc., priority 1993, dated 1995)

Columns and labels:
factor Xa = factor Xa (Homo sapiens, UniProt P00742); experiment: Fluorogenic enzyme assay (Example 5); format: biochemical; conditions: for Km / kcat /Km, Xa / kcat, Xa: Table 7; for Time (min) for 10% hydrolysis, Xa: enzyme 100 nM, substrate 1 μM
Procedure: (§1) Enzyme assays (except factor VIIa assays, see below) were conducted in 20 mM Tris, 150 mM NaCl, pH 7.4 (TBS) at room temperature (22° C.). The final volume for all reaction mixtures was 2.0 ml. Fluorogenic substrates were dissolved in DMSO to a stock concentration of 10 mM. The 10 mM stock solution was diluted in TBS to the final working concentration prior to all assays. Enzyme was added to mixtures containing buffer components and substrate and the initial rate of substrate hydrolysis was measured as the change in fluorescent intensity over time, corresponding to the generation of the particular 6-amino-1-naphthalenesulfonamide fluorophore from the provided substrate. Quantitation of substrate hydrolysis was accomplished by establishing a standard curve from the appropriate fluorescent moiety. Fluorescence was monitored (continuously or discontinuously) using a Perkin Elmer fluorescence spectrophotometer, model MPF-44A, equipped with a standard chart recorder. The fluorophore was detected using monochrometers set at an excitation wavelength of 352 nm and an emission wavelength of 470 nm. Light scattering artifacts were minimized using a 399 nm cut off filter in the emission light beam.
(§2) The kinetic constants of substrate hydrolysis were determined using the non-linear least squares regression analysis program ENZFITTER (Cambridge, UK). This program was used to iteratively fit initial rates of substrate hydrolysis to the Michaelis-Menten equation and the kinetic constants of substrate hydrolysis (Km) and (kcat) were calculated.

plasmin (Plm) = plasmin (Plm) (Homo sapiens, UniProt P00747); experiment: Fluorogenic enzyme assay (Example 5); format: biochemical; conditions: enzyme 100 nM, substrate 1 μM; for Time (min) for 5% hydrolysis, Plm: footnote b
Chain of plasmin (Plm) (P00747 581-810 limits assumed, species assumed): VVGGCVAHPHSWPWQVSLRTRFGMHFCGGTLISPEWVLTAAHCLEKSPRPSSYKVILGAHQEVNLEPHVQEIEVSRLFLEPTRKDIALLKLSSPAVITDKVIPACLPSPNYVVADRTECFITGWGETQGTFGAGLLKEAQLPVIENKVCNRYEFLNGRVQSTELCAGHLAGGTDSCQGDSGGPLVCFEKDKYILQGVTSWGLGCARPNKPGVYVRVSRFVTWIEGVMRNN
Chain of plasmin (Plm) (P00747 97-580 limits assumed, species assumed): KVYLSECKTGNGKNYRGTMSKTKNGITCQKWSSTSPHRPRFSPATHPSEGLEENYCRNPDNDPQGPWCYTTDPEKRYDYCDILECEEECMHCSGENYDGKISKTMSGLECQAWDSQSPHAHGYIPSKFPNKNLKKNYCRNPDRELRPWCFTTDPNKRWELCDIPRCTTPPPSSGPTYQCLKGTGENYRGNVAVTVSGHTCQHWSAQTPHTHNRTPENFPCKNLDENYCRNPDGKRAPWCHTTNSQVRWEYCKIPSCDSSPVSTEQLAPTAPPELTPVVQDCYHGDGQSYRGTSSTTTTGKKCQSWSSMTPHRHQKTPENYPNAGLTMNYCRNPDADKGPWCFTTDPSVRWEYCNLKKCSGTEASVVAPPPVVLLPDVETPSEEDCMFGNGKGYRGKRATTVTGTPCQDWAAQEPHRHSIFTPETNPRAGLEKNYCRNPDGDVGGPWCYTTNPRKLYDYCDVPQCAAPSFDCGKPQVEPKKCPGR
Procedure: as §1, §2

[1] = molecular target: tissue plasminogen activator (t-PA) (Homo sapiens, UniProt P00750); experiment: Fluorogenic enzyme assay (Example 5); format: biochemical; conditions: enzyme 100 nM, substrate 1 μM; for hydrolysis, t-PA (symbol N.D.): after 24 hrs; for Time (min) for 5% hydrolysis, t-PA: footnote b
Chain of tissue plasminogen activator (t-PA) (P00750 36-562, species assumed): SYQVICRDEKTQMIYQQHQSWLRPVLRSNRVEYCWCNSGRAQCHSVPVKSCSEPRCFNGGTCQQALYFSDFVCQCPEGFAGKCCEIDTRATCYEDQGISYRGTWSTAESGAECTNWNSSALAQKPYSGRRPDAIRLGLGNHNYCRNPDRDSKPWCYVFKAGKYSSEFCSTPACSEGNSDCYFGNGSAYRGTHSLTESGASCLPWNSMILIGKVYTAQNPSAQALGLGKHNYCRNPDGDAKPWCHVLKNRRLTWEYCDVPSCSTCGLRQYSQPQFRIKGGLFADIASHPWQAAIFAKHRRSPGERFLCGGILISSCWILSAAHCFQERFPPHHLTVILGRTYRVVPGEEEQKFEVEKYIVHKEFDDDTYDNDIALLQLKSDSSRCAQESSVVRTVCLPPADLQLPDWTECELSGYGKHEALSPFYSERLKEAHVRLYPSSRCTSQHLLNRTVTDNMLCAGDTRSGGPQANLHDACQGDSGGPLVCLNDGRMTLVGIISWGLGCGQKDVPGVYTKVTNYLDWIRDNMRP
Procedure: as §1, §2

urokinase (u-PA) = urokinase (u-PA) (Homo sapiens, UniProt P00749); experiment: Fluorogenic enzyme assay (Example 5); format: biochemical; conditions: enzyme 100 nM, substrate 1 μM; for hydrolysis, u-PA (symbol N.D.): after 24 hrs
Procedure: as §1, §2

[2] = molecular target: activated protein C (APC) (Homo sapiens, UniProt P04070); experiment: Fluorogenic enzyme assay (Example 5); format: biochemical; design: key to Hydrolysis kinetic constants, APC (symbol b): Slow substrate hydrolysis, no kinetic constants calculated; conditions: for Hydrolysis kinetic constants, APC (symbol b) / Km / kcat /Km, APC / kcat, APC: Table 7; for Time (min) for 10% hydrolysis, APC: enzyme 100 nM, substrate 1 μM
Chain of activated protein C (APC) (P04070 212-461 limits assumed): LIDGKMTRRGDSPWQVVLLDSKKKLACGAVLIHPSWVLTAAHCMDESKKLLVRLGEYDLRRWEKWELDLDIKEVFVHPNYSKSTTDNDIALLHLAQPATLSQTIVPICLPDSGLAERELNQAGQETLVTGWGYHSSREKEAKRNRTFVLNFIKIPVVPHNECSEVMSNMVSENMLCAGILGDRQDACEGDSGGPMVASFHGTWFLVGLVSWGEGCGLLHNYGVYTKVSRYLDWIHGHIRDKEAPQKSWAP
Chain of activated protein C (APC) (P04070 43-197 limits assumed): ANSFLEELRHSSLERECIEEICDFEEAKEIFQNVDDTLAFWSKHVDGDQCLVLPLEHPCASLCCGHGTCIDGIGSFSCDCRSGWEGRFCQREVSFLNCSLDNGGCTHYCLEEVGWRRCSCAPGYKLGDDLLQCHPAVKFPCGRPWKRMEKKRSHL
Procedure: as §1, §2

thrombin (IIa) = molecular target: T1, thrombin (IIa) (Homo sapiens, UniProt P00734); experiment: Fluorogenic enzyme assay (Example 5); format: biochemical; design: key to Hydrolysis kinetic constants, IIa (symbol b): Slow substrate hydrolysis, no kinetic constants calculated; conditions: for Hydrolysis kinetic constants, IIa (symbol b) / Km / kcat /Km, IIa / kcat, IIa: Table 7; for Time (min) for 10% hydrolysis, IIa: enzyme 100 nM, substrate 1 μM
T1 construct: 0.5 nM human thrombin (IIa)
Procedure: as §1, §2

[3] = Fluorescence of 6-amino-1-naphthalenesulfonamides and substrates; format: physicochemical; conditions: for Relative Fluorescence: TBS, pH 7.4, 22°C., 1 μM, relative to ANSNH(i-C4 H9), excitation 352 nm, emission 470 nm; for Emission Maxima: free fluorophore
From the text: Each of the 6-amino-1-naphthalenesulfonamide detecting groups, i.e., the free fluorophores, have excitation maxima near 350 nm with emission maxima ranging from 465 to 476 nm. Fluorescent measurements show a 2.2 fold range in the intensities of the fluorescent signals among the fifteen synthesized compounds. The 6-peptidylamino-1-naphthalenesulfonamide fluorogenic substrates have a relative fluorescent intensity at 470 nm which is less than 0.1% of that of the respective free fluorophore. Detection of the free fluorophore can be reliably achieved (>2× background) at a concentration of about 10^-9 M in the presence of about 10^-6 fluorogenic substrate.
^a Measured in TBS, pH 7.4. 22°C.. Concentration of ANSNR
R2 = 1 μM. Fluorescence is expressed relative of ANSNH(i-C4
H9). Excitation wavelength = 352 nm, Emission wavelength = 470 nm.

Chain of factor Xa (P00742 235-488 limits assumed): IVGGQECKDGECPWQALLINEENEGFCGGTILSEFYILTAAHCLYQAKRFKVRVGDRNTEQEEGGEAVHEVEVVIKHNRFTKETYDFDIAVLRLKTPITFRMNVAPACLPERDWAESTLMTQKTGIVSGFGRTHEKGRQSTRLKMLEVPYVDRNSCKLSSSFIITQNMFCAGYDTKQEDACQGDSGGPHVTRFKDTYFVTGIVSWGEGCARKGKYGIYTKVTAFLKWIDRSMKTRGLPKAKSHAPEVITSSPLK
Chain of factor Xa (P00742 41-179 limits assumed): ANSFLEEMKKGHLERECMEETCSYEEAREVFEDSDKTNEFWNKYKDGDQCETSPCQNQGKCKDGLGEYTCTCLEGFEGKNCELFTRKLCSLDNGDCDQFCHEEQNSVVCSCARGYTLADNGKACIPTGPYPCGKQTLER

SMILES	Km (factor Xa) [µM]	kcat /Km, Xa (factor Xa) [M⁻¹ s⁻¹]	kcat, Xa (factor Xa) [s⁻¹]	Time (min) for 10% hydrolysis, Xa (factor Xa) [min]	Time (min) for 10% hydrolysis, APC [2] [min]	Time (min) for 10% hydrolysis, IIa (thrombin (IIa)) [min]	Relative Fluorescence [3]	Emission Maxima [3] [nm]	further results
Br.N=C(N)NCCC[C@H](NC(=O)OCc1ccccc1)C(=O)Nc1ccc2c(S(=O)(=O)N3CCCCCC3)cccc2c1 [(N^α -Z)ArgANSNR1 R2; (CH2)6]	427	293	0.13	20	813	90			Time (min) for 5% hydrolysis, Plm (plasmin (Plm)): 770 min; hydrolysis, t-PA (symbol N.D.) [1]: N.D. (Less than 5% hydrolysis after 24 hrs.); hydrolysis, u-PA (symbol N.D.) (urokinase (u-PA)): N.D. (Less than 5% hydrolysis after 24 hrs.); Hydrolysis kinetic constants, APC (symbol b) [2]: b; Hydrolysis kinetic constants, IIa (symbol b) (thrombin (IIa)): b
Br.CCN(CC)S(=O)(=O)c1cccc2cc(NC(=O)[C@H](CCCNC(=N)N)NC(=O)OCc3ccccc3)ccc12 [(N^α -Z)ArgANSNR1 R2; C2 H5; C2 H5, 6-(N^α -benzyloxycarbonyl-L-arginyl)amino-1-(N,N-diethyl)napthalenesulfonamide hydrobromides]	200	1290	0.26	14	1080	165			Time (min) for 5% hydrolysis, Plm (plasmin (Plm)): 1370 min; hydrolysis, t-PA (symbol N.D.) [1]: N.D. (Less than 5% hydrolysis after 24 hrs.); hydrolysis, u-PA (symbol N.D.) (urokinase (u-PA)): N.D. (Less than 5% hydrolysis after 24 hrs.); Hydrolysis kinetic constants, IIa (symbol b) (thrombin (IIa)): b
Br.CN(C)S(=O)(=O)c1cccc2cc(NC(=O)[C@H](CCCNC(=N)N)NC(=O)OCc3ccccc3)ccc12 [(N^α -Z)ArgANSNR1 R2; CH3; CH3]	91.4	1020	0.09	15	200	45			Time (min) for 10% hydrolysis, Plm (plasmin (Plm)): 1140 min; hydrolysis, t-PA (symbol N.D.) [1]: N.D. (Less than 5% hydrolysis after 24 hrs.); hydrolysis, u-PA (symbol N.D.) (urokinase (u-PA)): N.D. (Less than 5% hydrolysis after 24 hrs.); Hydrolysis kinetic constants, APC (symbol b) [2]: b; Km (thrombin (IIa)): 22.6 µM; kcat /Km, IIa (thrombin (IIa)): 630 M⁻¹ s⁻¹; kcat, IIa (thrombin (IIa)): 0.01 s⁻¹
Br.CCCNS(=O)(=O)c1cccc2cc(NC(=O)[C@H](CCCNC(=N)N)NC(=O)OCc3ccccc3)ccc12 [(N^α -Z)ArgANSNR1 R2; H; C3 H7]	125	593	0.07	40	15	27			Time (min) for 5% hydrolysis, Plm (plasmin (Plm)): 1620 min; hydrolysis, t-PA (symbol N.D.) [1]: N.D. (Less than 5% hydrolysis after 24 hrs.); Time (min) for 10% hydrolysis, u-PA (urokinase (u-PA)): 220 min; Km [2]: 320 µM; kcat /Km, APC [2]: 1470 M⁻¹ s⁻¹; kcat, APC [2]: 0.47 s⁻¹; Km (thrombin (IIa)): 22.2 µM; kcat /Km, IIa (thrombin (IIa)): 1580 M⁻¹ s⁻¹; kcat, IIa (thrombin (IIa)): 0.04 s⁻¹
Br.CCCCCNS(=O)(=O)c1cccc2cc(NC(=O)[C@H](CCCNC(=N)N)NC(=O)OCc3ccccc3)ccc12 [(N^α -Z)ArgANSNR1 R2; H; C5 H11]	36.8	979	0.04	45	12	30			Time (min) for 10% hydrolysis, Plm (plasmin (Plm)): 510 min; Time (min) for 5% hydrolysis, t-PA [1]: 1280 min; Time (min) for 10% hydrolysis, u-PA (urokinase (u-PA)): 43 min; Km [2]: 436 µM; kcat /Km, APC [2]: 1830 M⁻¹ s⁻¹; kcat, APC [2]: 0.8 s⁻¹; Km (thrombin (IIa)): 41.4 µM; kcat /Km, IIa (thrombin (IIa)): 242 M⁻¹ s⁻¹; kcat, IIa (thrombin (IIa)): 0.01 s⁻¹
Br.CNS(=O)(=O)c1cccc2cc(NC(=O)[C@H](CCCNC(=N)N)NC(=O)OCc3ccccc3)ccc12 [(N^α -Z)ArgANSNR1 R2; H; CH3]	160	714	0.11	25	120	38			Time (min) for 5% hydrolysis, Plm (plasmin (Plm)): 1620 min; Time (min) for 5% hydrolysis, t-PA [1]: 1280 min; Time (min) for 10% hydrolysis, u-PA (urokinase (u-PA)): 660 min; Hydrolysis kinetic constants, APC (symbol b) [2]: b; Km (thrombin (IIa)): 62.5 µM; kcat /Km, IIa (thrombin (IIa)): 640 M⁻¹ s⁻¹; kcat, IIa (thrombin (IIa)): 0.04 s⁻¹
Br.N=C(N)NCCC[C@H](NC(=O)OCc1ccccc1)C(=O)Nc1ccc2c(S(=O)(=O)NCc3ccccc3)cccc2c1 [(N^α -Z)ArgANSNR1 R2; H; benzyl]	213	198	0.04	46	12	17			Time (min) for 10% hydrolysis, Plm (plasmin (Plm)): 330 min; Time (min) for 10% hydrolysis, t-PA [1]: 510 min; Time (min) for 10% hydrolysis, u-PA (urokinase (u-PA)): 19 min; Km [2]: 218 µM; kcat /Km, APC [2]: 1050 M⁻¹ s⁻¹; kcat, APC [2]: 0.23 s⁻¹; Km (thrombin (IIa)): 41 µM; kcat /Km, IIa (thrombin (IIa)): 1680 M⁻¹ s⁻¹; kcat, IIa (thrombin (IIa)): 0.07 s⁻¹
Nc1ccc2c(S(=O)(=O)N3CCCCC3)cccc2c1 [ANSNR1 R2; (CH2)5]							68	473	
Nc1ccc2c(S(=O)(=O)N3CCCCCC3)cccc2c1 [ANSNR1 R2; (CH2)6]							96	469	
CCN(CC)S(=O)(=O)c1cccc2cc(N)ccc12 [ANSNR1 R2; C2 H5; C2 H5, 6-amino-1-(N,N-diethyl)naphthalenesulfonamide]							89	470	
CN(C)S(=O)(=O)c1cccc2cc(N)ccc12 [ANSNR1 R2; CH3; CH3]							65	472	
CCNS(=O)(=O)c1cccc2cc(N)ccc12 [ANSNR1 R2; H; C2 H5]							78	466	
CCCNS(=O)(=O)c1cccc2cc(N)ccc12 [ANSNR1 R2; H; C3 H7]							93	470	
CCCCNS(=O)(=O)c1cccc2cc(N)ccc12 [ANSNR1 R2; H; C4 H9]							63	467	
CCCCCNS(=O)(=O)c1cccc2cc(N)ccc12 [ANSNR1 R2; H; C5 H11]							90	469	
CNS(=O)(=O)c1cccc2cc(N)ccc12 [ANSNR1 R2; H; CH3]							92	468	
Nc1ccc2c(S(=O)(=O)NCc3ccccc3)cccc2c1 [ANSNR1 R2; H; benzyl]							75	467	
Nc1ccc2c(S(=O)(=O)NC3CCCCC3)cccc2c1 [ANSNR1 R2; H; cyclo-C6 H11]							101	466	
CC(C)NS(=O)(=O)c1cccc2cc(N)ccc12 [ANSNR1 R2; H; i-C3 H7]							76	468	
CC(C)CNS(=O)(=O)c1cccc2cc(N)ccc12 [ANSNR1 R2; H; i-C4 H9]							100	468	
CC(C)(C)NS(=O)(=O)c1cccc2cc(N)ccc12 [ANSNR1 R2; H; t-C4 H9]							112	465	
Nc1ccc2c(S(=O)(=O)N3CCOCC3)cccc2c1 [ANSNR1 R2; morpholyl]							41	476	
